Results: patent publication US11801235B2, “Methods and compositions for delivery of biotin to mitochondria” (priority 2020, dated 2023)
Peptide text beside a SMILES is read from it. * marks the point of attachment. Biotin = O=C1N[C@H]2[C@H](CS[C@H]2CCCCC(=O)*)N1

Assays:
HK-2 cells [1] = experiment: Cell viability (Alamar Blue) after 11 days of serum starvation; type: cell-based, human; conditions: 10 nM, vs serum-free control
Method: In the first model, HK-2 cells were cultured in 96-well plates in serum-free DMEM alone or in serum-free DMEM containing 10 nM of SPN11 or SPN12 for 11 days. Culture medium was replaced every 3 days.
(§1) Cell viability was measured using the Alamar Blue Cell Proliferation Assay (Bio-Rad), according to manufacturer's protocol. Alamar Blue uses resazurin to measure reducing power of living cells. The weakly fluorescent resazurin is reduced to the highly fluorescent resorufin when reduced by cellular metabolism. Briefly, alamar blue reagent (10 ul) was added to the culture medium and incubated for 1 h at 37° C. Fluorescence from resorufin (Ex/Em 530/590 nm) was detected using a microplate reader (SpectraMax iD3, Molecular Devices).

[2] = tested on: ARPE-19 human retinal pigment epithelial cell monolayers; experiment: Cell proliferation at scratch edge (PCNA staining); type: cell-based; conditions: ARPE-19 cells, 10 nM, serum-free, 24 hours after scratch
Excerpt: (§2) Re-epithelialization of a wound area require proliferation of cells at the wound edge, which can be impaired in most wounds due to lack of blood flow to deliver nutrients and/or growth factor(s) that can be necessary for cell proliferation. Cell proliferation in the wound edge can be monitored by proliferating cell nuclear antigen (PCNA) staining. To mimic the microenvironment of wounds in vitro, serum-free medium was used for the scratch assay in cell cultures.
(§3) Proliferating cells were identified by immunostaining with antibody to proliferating cell nuclear antigen (PCNA) according to standard procedures as presented in IHC World. PCNA staining was performed using the same plate of cells after determination of scratch area. […] All cell nuclei stain blue with Hoechst, but nuclei of proliferating cells stain red. The number of proliferating cells per field was quantified by the intensity of red nuclear stain and normalized to intensity of blue nuclear stain (determined by Nikon NIS-Elements Imaging Software).

[3] = tested on: HK-2 human renal epithelial cell monolayers; experiment: Cell proliferation at scratch edge (PCNA staining); type: cell-based; conditions: HK-2 cells, 10 nM, serum-free, 24 hours after scratch
Excerpt: as §2, §3

HK-2 cells [4] = experiment: Cellular ATP in extreme starvation model (serum-free 5% DMEM in PBS, 3 days); type: cell-based, human; conditions: 10 nM
Method: ATP was measured using the ApoSENSOR ATP Bioluminescence Assay Kit (BioVision) according to manufacturer's protocol. This kit utilizes luciferase to catalyze the formation of light from ATP and luciferin. Briefly, cells were treated with 100 ul of Nuclear Releasing Buffer for 5 min at RT with gentle shaking. 10 ul of ATP Monitoring Enzyme was added to cell lysate, and luminescence was measured using a microplate reader (SpectraMax iD3, Molecular Device). ATP levels were normalized to the serum-free DMEM control group (arbitrarily set to 1.0).
The second model uses an extreme starvation model whereby HK-2 cells were cultured in 96-well plates in serum-free 5% DMEM in PBS (phosphate-buffered saline) for 3 days. Cells were treated with 10 nM free biotin or peptide-conjugated biotin molecules. All treatments were carried out with N=6 in each experiment.

[5] = tested on: ARPE-19 human retinal pigment epithelial cells; experiment: Mitochondrial localization: co-localization with cytochrome c oxidase subunit 4 (COX4); type: cell-based; conditions: ARPE-19 cells, 1 uM, 2 hours, serum-free DMEM/F12
Method: Cells were fixed with 4% PFA at RT for 10 min and then permeabilized with 0.1% Triton X-100 at RT for 10 min. Cells were blocked with 2% BSA (bovine serum albumin) at RT for 30 min, and then incubated with primary antibody for cytochrome c oxidase subunit 4 (COX4), a major protein complex expressed on the inner mitochondrial membrane. The rabbit polyclonal COX4 antibody (Invitrogen PAS-29992, Waltham, MA) was used at 1:500 dilution in 2% BSA at 4° C. overnight.

ARPE-19 cells [6] = experiment: Cell number and viability after 30 days of serum deprivation; type: cell-based, human; conditions: 10 nM
Method: as §1
In the second model, ARPE-19 cells were grown in serum-free DMEM in the absence or presence of peptide-conjugated biotin molecules for 30 days. Serum-free media was supplemented with 10 nM of SPN12, SPN15 or SPN16 compounds (all at 10 nM) was replaced every 3 days. Culture medium was replaced every 3 days.

HK-2 cells [7] = experiment: Mitochondrial potential (TMRM) of cells at the scratch edge; type: cell-based, human; conditions: 10 nM, serum-free, 24 hours after scratch
Excerpt: Rapidly dividing cells can need ATP to support the synthesis of important building blocks. Tissue injury can cause rapid mitochondrial depolarization that compromises ATP production and/or results in cell death. The loss of ATP can further impair cell proliferation and/or tissue repair. Mitochondrial potential can be monitored in the cells at the edge of the scratch area using the cell-permeable potential-dependent dye TMRM (tetramethylrhodamine methyl ester). TMRM can accumulate in negatively charged polarized mitochondria and can be detected as red fluorescence. To mimic the microenvironment of wounds in vitro, serum-free medium was used in the scratch assay. […] HK-2 cells were then incubated with 5 nM TMRM in DMEM without phenol red and incubated for 30 min. Cells were then covered with live cell image buffer and imaged using Nikon Eclipse Ti2 fluorescent microscope (20× objective).

ARPE-19 cells [8] = experiment: In vitro scratch assay (scratch area); type: cell-based, human
Excerpt: (§4) Certain exemplary peptide-conjugated biotin molecules can accelerate wound healing in cell cultures. The in vitro scratch assay is an easy and well-developed method to measure cell proliferation and migration over a “wound area” in vitro. This assay involves creating a “scratch” in a cell monolayer with a pipette tip and then examining the rate at which cells proliferate and migrate to close the scratch.
(§5) The scratch area was examined immediately (day 0) using a Nikon Eclipse Ti2 fluorescence microscope. Six different field were captured for each sample using 4×objective. The scratch area (cell-free zone) was calculated using ImageJ software, an open-source Java image processing program inspired by NIH Image (National Institute of Health). The scratch area was re-examined after 24 hours (day 1), and the area was normalized to the area determined on day 0 for the same sample. All results were calculated as change from no-treatment control and averaged for the six fields.

[9] = tested on: Human retinal pigment epithelial cells (ARPE-19); experiment: Mitochondrial potential (TMRM/MitoView Green) after serum starvation; type: cell-based; conditions: ARPE-19 cells, 3 days of serum starvation, then 1 uM for 2 hours
Method: ARPE-19 cells were seeded in 35 mm glass plates at an initial density of 5×10^4 cells. […] Cells were then incubated in serum-free DMEM/F12 alone (control group) or DMEM/F12 containing 1 uM of SPN12 or SPN15 for 2 hours.
To determine mitochondrial potential, live cells were incubated with 5 nM tetramethylrhodamine methyl ester (TMRM, #70017, Biotium, Fremont, CA) in DMEM without phenol red. TMRM is a potential-dependent fluorescent dye (Ex/Em=548/573). TMRM accumulates in negatively charged polarized mitochondria and can be detected as red fluorescence. Total mitochondria were imaged with a mitochondrial potential-independent fluorescent dye (100 nM MitoView Green; Ex/Em=490/523; #70054, Biotium, Fremont CA). Hoechst 33342 (10 ug/ml, Novus Biologicals, Centennial, CO) was added to stain nuclei. Live cells were covered with phosphate buffer and imaged using the Nikon Eclipse Ti fluorescent microscopy using the 60×water objective.

HK-2 cells [10] = experiment: In vitro scratch assay (scratch area); type: cell-based, human; conditions: 10 nM
Method: as §4
3×10^5 cells were plated per well in 6-well plates in DMEM at 37° C. in a humidified incubator with 5% CO2 for one day prior to the experiment. To mimic the microenvironment of wounds in vitro, serum-free medium was used in the scratch assay. On the day of the scratch assay, the medium was replaced with serum-free DMEM, and a line scraped across the cell monolayer using a p1000 pipette tip. Cells were washed to remove cell debris and replaced with DMEM alone (control), or DMEM containing 10 nM biotin or peptide-conjugated biotin molecules.
as §5

N=C(N)NCCC[C@H](NC(=O)[C@H](Cc1c[nH]c2ccccc12)NC(=O)CCCC[C@@H]1SC[C@@H]2NC(=O)N[C@@H]21)C(=O)N[C@@H](Cc1c[nH]c2ccccc12)C(=O)N[C@@H](CCCCNC(=O)CCCC[C@@H]1SC[C@@H]2NC(=O)N[C@@H]21)C(N)=O [SPN12, D-Biotin-L-Trp-L-Arg-L-Trp-L-Lys(biotinyl)-NH2] (Biotin-WRWK(Biotin)-NH2)
improvement of cell viability in the absence of serum, FIG. 7 (HK-2 cells [1]): 35%
number of proliferating (PCNA-positive) cells at the edge of the scratch, images FIG. 22 [2]: increased the number of proliferating cells
number of proliferating cells normalized to all nuclei, FIG. 21 ([3]; compared to control or biotin): doubled
number of proliferating (PCNA-positive) cells at the edge of the scratch, images FIG. 20 ([3]; compared to free biotin): increased the number of proliferating cells
ATP content compared to free biotin under extreme starvation, FIG. 12 (HK-2 cells [4]): doubling
co-localization of biotin staining with COX4 staining (inner mitochondrial membrane), FIG. 6 [5]: co-localization
cell viability after serum deprivation compared to control, FIG. 9 (ARPE-19 cells [6]; 30 days of serum deprivation): doubled
cell number after prolonged serum deprivation, microscopic images FIG. 8 (ARPE-19 cells [6]; 30 days serum-free): increased cell number
number of cells with good mitochondrial potential (TMRM) at scratch edge, images FIG. 24 (HK-2 cells [7]): increased the number of cells with good mitochondrial potential
mitochondrial potential (red fluorescence) normalized to nuclear number, FIG. 25 (HK-2 cells [7]; compared to control): significantly increased mitochondrial potential
wound healing (scratch closure), FIG. 18 (ARPE-19 cells [8]): accelerated wound healing
mitochondrial potential (TMRM) and filamentous mitochondrial network, FIG. 14 [9]: restore mitochondrial potential in all cells
scratch area after 24 hours, microscopic images FIG. 15 (HK-2 cells [10]; serum-free DMEM, 24 hours after mechanical scratch): almost completely closed
closure of the scratch area compared to control, FIG. 16 and FIG. 17 (HK-2 cells [10]; serum-free, 24 hours): significantly accelerated the closure of the scratch area
effectiveness in reducing scratch area compared to free biotin, FIG. 16 and FIG. 17 (HK-2 cells [10]; serum-free, 24 hours): twice as effective
